Measured values taken from ChEMBL document CHEMBL4359811, “Development of Potent and Selective Pyrazolopyrimidine IRAK4 Inhibitors” (J Med Chem, 2019).
Converted amounts (≈) assume the structure as drawn.

What was measured:
[1] = target: T1, Interleukin-1 receptor-associated kinase 4 (Homo sapiens, UniProt Q9NWZ3); test: Inhibition of IRAK4 in human THP1-Xblue-MD2-CD14 cells assessed as reduction in LPS-induced NFkappaB transcription by measuring alkaline phosphatase level preincubated for 1 hr followed by LPS stimulation and measured after 20 hrs by quanti-blue reagent based reporter assay
T1 sequence (Q9NWZ3 whole entry): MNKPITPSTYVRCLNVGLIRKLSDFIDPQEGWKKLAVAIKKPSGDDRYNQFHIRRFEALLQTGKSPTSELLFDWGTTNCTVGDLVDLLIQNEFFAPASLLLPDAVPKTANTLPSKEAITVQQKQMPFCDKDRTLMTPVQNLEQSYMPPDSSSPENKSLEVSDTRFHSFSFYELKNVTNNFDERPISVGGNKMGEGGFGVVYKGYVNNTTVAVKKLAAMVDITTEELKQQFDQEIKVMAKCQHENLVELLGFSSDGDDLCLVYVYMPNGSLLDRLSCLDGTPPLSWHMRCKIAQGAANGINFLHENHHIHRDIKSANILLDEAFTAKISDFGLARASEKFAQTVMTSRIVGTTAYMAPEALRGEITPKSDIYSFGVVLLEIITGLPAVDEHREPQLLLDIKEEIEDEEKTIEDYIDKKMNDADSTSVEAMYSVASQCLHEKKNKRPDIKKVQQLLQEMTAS

[2] = target: Interleukin-1 receptor-associated kinase 1 (Homo sapiens, UniProt P51617); test: Inhibition of human recombinant full length N-terminal His6-tagged IRAK1 (Argl94 to Ser712 residues) expressed in insect cells using H-KKARFSRFAGSSPSQSSMVAR as substrate incubated for 60 mins by fluorescence polarisation assay
Chain of Interleukin-1 receptor-associated kinase 1 (P51617 whole entry): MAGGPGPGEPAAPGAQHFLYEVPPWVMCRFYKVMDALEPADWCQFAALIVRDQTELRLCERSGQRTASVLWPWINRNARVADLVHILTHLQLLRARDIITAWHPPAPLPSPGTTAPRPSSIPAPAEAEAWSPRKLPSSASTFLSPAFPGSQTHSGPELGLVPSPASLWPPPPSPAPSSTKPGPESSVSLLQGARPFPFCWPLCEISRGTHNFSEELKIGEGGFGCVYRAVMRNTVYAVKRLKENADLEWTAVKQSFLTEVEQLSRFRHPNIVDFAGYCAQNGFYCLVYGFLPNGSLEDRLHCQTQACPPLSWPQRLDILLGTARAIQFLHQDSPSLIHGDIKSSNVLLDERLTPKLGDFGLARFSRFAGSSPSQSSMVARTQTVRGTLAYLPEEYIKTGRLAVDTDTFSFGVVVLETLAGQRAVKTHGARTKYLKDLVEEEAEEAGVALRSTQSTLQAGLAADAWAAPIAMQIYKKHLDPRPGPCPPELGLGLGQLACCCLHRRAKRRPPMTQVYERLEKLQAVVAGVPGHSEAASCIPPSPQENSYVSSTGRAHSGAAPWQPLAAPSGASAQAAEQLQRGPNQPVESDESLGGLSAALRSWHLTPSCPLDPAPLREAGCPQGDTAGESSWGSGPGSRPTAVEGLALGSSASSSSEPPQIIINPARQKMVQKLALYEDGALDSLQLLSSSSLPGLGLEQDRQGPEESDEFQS

[3] = target: T1, Interleukin-1 receptor-associated kinase 4; test: Inhibition of human recombinant full length His6-tagged IRAK4 expressed in baculovirus expression system using H-KKARFSRFAGSSPSQSSMVAR as substrate incubated for 90 mins by fluorescence polarisation assay
[4] = Kinetic aqueous solubility of the compound in PBS buffer at pH 7.4 incubated for 24 hrs under shaking condition by LC-CLND assay; assay type: physicochemical; details: for solubility kinetic at 24 h: PBS buffer, pH 7.4, read-out: Kinetic_solubility
[5] = Apparent permeability from apical to basolateral side in MDCK cells at 10 uM incubated for 180 mins and measured up to 180 min by LC-MS/MS analysis; assay type: ADME, cell-based, Canis lupus familiaris; details: dog
[6] = Blood clearance in mouse at 1 mg/kg, iv; assay type: ADME, organism-based; details: whole blood
[7] = Protein binding in mouse plasma at 5 uM incubated for 4 hrs by LC-MS/MS analysis; assay type: ADME, cell-free; details: read-out: PPB (converted)
[8] = Protein binding in human plasma at 5 uM incubated for 4 hrs by LC-MS/MS analysis; assay type: ADME, cell-free; details: read-out: PPB (converted)
[9] = AUC (infinity) in mouse at 5 mg/kg, po; assay type: ADME, organism-based; set-up: dose 5 mg/kg, route oral, time infinity; details: in vivo
[10] = Oral bioavailability in mouse at 5 mg/kg; assay type: ADME, organism-based; details: in vivo
[11] = Volume of distribution at steady state in mouse at 1 mg/kg, iv; assay type: ADME, organism-based; details: in vivo, read-out: Vdss
[12] = Cmax in mouse at 5 mg/kg, po; assay type: ADME, organism-based; set-up: dose 5 mg/kg, route oral; details: in vivo
[13] = target: T1, Interleukin-1 receptor-associated kinase 4; test: Inhibition of recombinant IRAK4 (unknown origin) using KKARFSRFAGSSPSQSSMVAR as substrate in presence of [gamma33P]-ATP by liquid scintillation counting method
[14] = Cmax in mouse at 100 mg/kg, po administered as suspension in MCT; assay type: ADME, organism-based; set-up: dose 100 mg/kg, route oral; details: in vivo
[15] = Cmax in mouse at 30 mg/kg, po; assay type: ADME, organism-based; set-up: dose 30 mg/kg, route oral; details: in vivo
[16] = Oral bioavailability in mouse at 10 mg/kg; assay type: ADME, organism-based; details: in vivo
[17] = AUC (infinity) in mouse at 30 mg/kg, po; assay type: ADME, organism-based; set-up: dose 30 mg/kg, time infinity, route oral; details: in vivo
[18] = target: T2, Interleukin-1 receptor-associated kinase 4 (Homo sapiens) (UniProt Q9NWZ3); test: Inhibition of human recombinant full length His6-tagged IRAK4 expressed in baculovirus expression system at 1 uM relative to control
T2 sequence (whole entry): T1 sequence (Q9NWZ3 whole entry)

[19] = Cmax in mouse at 10 mg/kg, po; assay type: ADME, organism-based; set-up: dose 10 mg/kg, route oral; details: in vivo
[20] = AUC (infinity) in mouse at 100 mg/kg, po administered as suspension in MCT; assay type: ADME, organism-based; set-up: dose 100 mg/kg, time infinity, route oral; details: in vivo
[21] = Oral bioavailability in mouse at 100 mg/kg administered as suspension in MCT; assay type: ADME, organism-based; details: in vivo
[22] = Oral bioavailability in mouse at 30 mg/kg; assay type: ADME, organism-based; details: in vivo
[23] = AUC (infinity) in mouse at 10 mg/kg, po; assay type: ADME, organism-based; set-up: dose 10 mg/kg, route oral, time infinity; details: in vivo

SMILES | IC50 [1] [nM] | Ki [2] [nM] | Ki [3] [nM] | solubility kinetic at 24 h [4] [µM] | Papp A→B at 3 h, 10 µM [5] [×10⁻⁶ cm/s] | further results
COc1cc2ncccc2cc1NC(=O)c1cnn2cccnc12 | 370 | 2800 | 52 |  |  | 
CNC(=O)CN1CCN(c2cc3c(cc2NC(=O)c2cnn4cccnc24)CC(C)(C)O3)CC1 | 60 |  | 3.5 | 23 (≈ 10.7 µg/mL) | 13 | 
CC1(C)Cc2cc(NC(=O)c3cnn4cc(C(F)F)cnc34)c(N3CCOCC3)cc2O1 | 1200 |  | 31 | 2.5 (≈ 1.11 µg/mL) |  | 
O=C(Nc1cc2sc(N3CCOCC3)nc2cc1N1CCC(CO)CC1)c1cnn2cccnc12 | 8 | 24 | 0.5 |  | 8.4 | clearance [6]: 18 mL/min/kg; fraction unbound at 4 h, 5 µM [7]: 0.01; fraction unbound at 4 h, 5 µM [8]: 0.02; AUC ([9]; BLD = below limit of detection): Bld; F ([10]; BLD = below limit of detection): Bld; Vd [11]: 0.4 L/kg; Cmax ([12]; BLD = below limit of detection): Bld
CC1(C)Cc2cc(NC(=O)c3cnn4cc(C#N)cnc34)c(N3CCOCC3)cc2O1 | 84 |  | 6.1 | 1 (≈ 0.418 µg/mL) | 2.7 | 
O=C(Nc1cc2cccnc2cc1N1CCCCC1)c1cnn2cccnc12 |  |  |  |  |  | Ki [13]: 8 nM
COc1cc2ccccc2cc1NC(=O)c1cnn2cccnc12 |  |  |  |  |  | Ki [13]: 610 nM
O=C(Nc1cc2sc(N3CCOCC3)nc2cc1N1CCOCC1)c1cnn2cccnc12 | 76 | 190 | 0.8 |  | 12 | Cmax [14]: 3300 nM; Kinetic_solubility ([4]; buffer, pH 7.4, 24 h): Insoluble; Cmax [15]: 2000 nM; F [16]: 25%; fraction unbound at 4 h, 5 µM [7]: 0.01; AUC(0-inf) [17]: 11 µM·h; fraction unbound at 4 h, 5 µM [8]: 0.05; inhibition [18]: > 70%; Cmax [19]: 1300 nM; AUC [20]: 40 µM·h; AUC(0-inf) [9]: 0.6 µM·h; F [21]: 6%; bioavailability [22]: 12%; bioavailability [10]: 5%; Vd [11]: 0.9 L/kg; AUC [23]: 12 µM·h; Cmax ([12]; read-out: Cmax): 200 nM
CCn1c(N2CCOCC2)nc2cc(N3CCC(CO)CC3)c(NC(=O)c3cnn4cccnc34)cc21 | 910 | > 10000 | 95 |  |  | 
CC1(C)Cc2cc(NC(=O)c3cnn4cc(OC(F)F)cnc34)c(N3CCOCC3)cc2O1 | > 20000 |  | 34 | 1 (≈ 0.459 µg/mL) | 0.6 | 
O=C(Nc1cc2cnc(N3CCOCC3)nc2cc1N1CCCCC1)c1cnn2cccnc12 | 3000 | 5400 | 170 |  |  | 
O=C(Nc1cc2ccc(N3CCOCC3)nc2cc1N1CCCCC1)c1cnn2cccnc12 | 1300 | 4700 | 290 |  |  | 

Continued, in another order:

IC50 [1] [nM] | Ki [2] [nM] | Ki [3] [nM] | solubility kinetic at 24 h [4] [µM] | Papp A→B at 3 h, 10 µM [5] [×10⁻⁶ cm/s] | SMILES | further results
230 |  | 7.4 | 130 (≈ 58.3 µg/mL) | 13 | CN1CCC2(CC1)Cc1cc(NC(=O)c3cnn4cccnc34)c(N3CCOCC3)cc1O2 | 
170 |  | 7.3 | 150 (≈ 65.6 µg/mL) | 21 | CC(C)(O)[C@]1(C)Cc2cc(NC(=O)c3cnn4cccnc34)c(N3CCOCC3)cc2O1 | 
53 |  |  | 7.1 (≈ 3.08 µg/mL) |  | CC1(C)Cc2cc(NC(=O)c3cnn4cccnc34)c(N3CCC(C(N)=O)CC3)cc2O1 | 
56 |  |  | 1 (≈ 0.436 µg/mL) | 0.7 | CC1(C)Cc2cc(NC(=O)c3cnn4cc(C(N)=O)cnc34)c(N3CCOCC3)cc2O1 | 
 |  |  | 10 (≈ 4.09 µg/mL) | 27 | C[C@@]1(CO)Cc2cc(NC(=O)c3cnn4cccnc34)c(N3CCOCC3)cc2O1 | 
130 |  |  | 25 (≈ 10.5 µg/mL) |  | CC1(C)Cc2cc(NC(=O)c3cnn4cccnc34)c(N3CCCC(O)CC3)cc2O1 (stereo not given) | 
56 |  |  | 1 (≈ 0.489 µg/mL) |  | CC1(C)Cc2cc(NC(=O)c3cnn4cccnc34)c(N3CCC(C(O)C(F)(F)F)CC3)cc2O1 (stereo not given) | 
